Columns and labels:
aldose reductase [1] = test: reduction of sciatic nerve sorbitol in streptozotocin-diabetic rats (inhibition of aldose reductase in vivo); set-up: species or system rat; details: 5 daily oral doses of 3 mg/kg
Procedure: Rats are made diabetic (as evidenced by severe glucosuria being present) by dosing with streptozotocin. The animals are then dosed daily with the test compound for one, two or five days. The animals are then sacrificed 2-6 hours after the final dose and the eye lenses and/or sciatic nerves are removed. After a standard work-up procedure the residual sorbitol levels in each tissue are determined by gas liquid chromatography after conversion to the polytrimethylsilyl derivatives. Inhibition of aldose reductase in vivo can then be assessed by comparing the residual sorbitol levels in tissues from the dosed diabetic group of rats with those of an undosed group of diabetic rats and an undosed group of normal rats.
In a variation of the above test diabetic rats are dosed at a fixed daily oral dose for five days and then sacrificed 6 hours after the final dose and the reduction of sciatic nerve sorbitol assessed relative to that in control animals.

aldose reductase [2] = biological target: T1, aldose reductase (Bos taurus, UniProt P16116); test: inhibition in vitro of partially purified aldose reductase isolated from bovine lenses (spectrophotometric); format: biochemical; details: bovine lens aldose reductase
T1 construct: partially purified aldose reductase is isolated in known manner from bovine lenses; from tissue; host or cells: bovine lenses
Source text: Thus, in a standard procedure partially purified aldose reductase is isolated in known manner from bovine lenses. The percentage inhibition of this enzyme's ability in vitro to catalyse the reduction of aldoses to polyhydric alcohols, and particularly to reduce glucose to sorbitol, caused by a test compound can then be determined using standard spectrophotometric methods.

Cc1cc(NC(=O)Cc2ccccc2)cc(C)c1S(=O)(=O)C[N+](=O)[O-] [Example 1, (2,6-dimethyl-4-[phenylacetamido]phenylsulfonyl)nitromethane]
reduction in sciatic nerve sorbitol levels (aldose reductase [1]): 83%
IC50 (aldose reductase [2]): 0.118 µM

— US5270342A, “Acetamide derivatives” (Imperial Chemical Industries PLC, priority 1990, dated 1993)
